Data published in ChEMBL document CHEMBL4699440, “Comprehensive review on the anti-bacterial activity of 1,2,3-triazole hybrids” (Eur J Med Chem, 2019).
Values after ≈ are worked out from the molar mass of the structure shown. Numbered stars: 1 amine (or outer) side, 2 acyl side, 3 side chain; on linkers, the order of the positions; unused ones are H or OH. Square brackets hold non-standard residues; d marks the D form. Peptide text beside a SMILES is read from it. * marks the point of attachment. X1 = CC(C)(C(=O)c1ccc(C(F)(F)F)cc1)C(=O)*; βPro(3R) = O=C([C@@H]1CCN([*:1])C1)[*:2]; Phe(ol) = N[C@H](CO)Cc1ccccc1; Aib = CC(C)(N)C(=O)O

Assays:
Format in all cases: functional
Bacillus subtilis [1] = assay: Antibacterial activity against Bacillus subtilis ATCC 6051 incubated for 24 hrs by broth microdilution method
Escherichia coli [2] = assay: Antibacterial activity against Escherichia coli ATCC 25922 incubated for 24 hrs by broth microdilution method
Pseudomonas aeruginosa [3] = assay: Antibacterial activity against Pseudomonas aeruginosa ATCC 25619 incubated for 24 hrs by broth microdilution method
Staphylococcus aureus [4] = assay: Antibacterial activity against Staphylococcus aureus ATCC 12598 incubated for 24 hrs by broth microdilution method
Candida albicans [5] = assay: Antifungal activity against Candida albicans ATCC 2091 incubated for 24 hrs by broth microdilution method
Aspergillus niger [6] = assay: Antibacterial activity against Aspergillus niger ATCC 9029 incubated for 24 hrs by broth microdilution method
Escherichia coli [7] = assay: Antibacterial activity against Escherichia coli MTCC […] by serial dilution method
Bacillus subtilis [8] = assay: Antibacterial activity against Bacillus subtilis MTCC 441 by serial dilution method
[9] = test system: Staphylococcus epidermidis; assay: Antibacterial activity against Staphylococcus epidermidis MTCC 6880 by serial dilution method
Aspergillus niger [10] = assay: Antibacterial activity against Aspergillus niger MTCC 8189 by serial dilution method
Pseudomonas aeruginosa [11] = assay: Antibacterial activity against Pseudomonas aeruginosa MTCC 424 by serial dilution method
Candida albicans [12] = assay: Antibacterial activity against Candida albicans MTCC 227 by serial dilution method
Bacillus subtilis [13] = assay: Antibacterial activity against Bacillus subtilis assessed as inhibition zone at 1 mg/ml measured after overnight incubation by disc diffusion method; conditions: read-out: IZ
Staphylococcus aureus [14] = assay: Antibacterial activity against Staphylococcus aureus assessed as inhibition zone at 1 mg/ml measured after overnight incubation by disc diffusion method; conditions: read-out: IZ
Pseudomonas aeruginosa [15] = assay: Antibacterial activity against Pseudomonas aeruginosa assessed as inhibition zone at 1 mg/ml measured after overnight incubation by disc diffusion method; conditions: read-out: IZ
Escherichia coli [16] = assay: Antibacterial activity against Escherichia coli assessed as inhibition zone at 1 mg/ml measured after overnight incubation by disc diffusion method; conditions: read-out: IZ
Bacillus cereus = assay: Antibacterial activity against Bacillus cereus
Staphylococcus aureus [17] = assay: Antibacterial activity against Staphylococcus aureus

With `Cc1ccc2oc(=O)cc(Cn3nnc(N)c3C#N)c2c1` the MIC (Bacillus subtilis [1]) was 25 µg/mL (≈ 88.9 µM), the MIC (Escherichia coli [2]) was 0.4 µg/mL (≈ 1.42 µM) and the MIC (Pseudomonas aeruginosa [3]) was 25 µg/mL (≈ 88.9 µM). It also gave an MIC (Staphylococcus aureus [4]) of 1.6 µg/mL (≈ 5.69 µM), an MIC (Candida albicans [5]) of 0.2 µg/mL (≈ 0.711 µM) and an MIC (Aspergillus niger [6]) of 0.2 µg/mL (≈ 0.711 µM).
With `CCOC(=O)c1c(C)nnn1Cc1cc(=O)oc2ccc3c(c12)OCO3` the MIC (Bacillus subtilis [1]) was 25 µg/mL (≈ 70 µM), the MIC (Escherichia coli [2]) was 0.2 µg/mL (≈ 0.56 µM) and the MIC (Pseudomonas aeruginosa [3]) was 25 µg/mL (≈ 70 µM). The MIC (Staphylococcus aureus [4]) was 0.2 µg/mL (≈ 0.56 µM), the MIC (Candida albicans [5]) was 0.2 µg/mL (≈ 0.56 µM) and the MIC (Aspergillus niger [6]) was 0.2 µg/mL (≈ 0.56 µM).
In the case of `Cc1cc(O)c(C(=O)/C=C/c2ccc(OCc3cn(Cc4ccc(F)cc4)nn3)cc2)c(=O)o1`, the MIC (Escherichia coli [7]) is reported as 3 µM (≈ 1.38 µg/mL), the MIC (Bacillus subtilis [8]) is reported as 3 µM (≈ 1.38 µg/mL) and the MIC [9] is reported as 3 µM (≈ 1.38 µg/mL). For the same molecule, the MIC (Aspergillus niger [10]) was 3 µM (≈ 1.38 µg/mL), the MIC (Pseudomonas aeruginosa [11]) was 3 µM (≈ 1.38 µg/mL) and the MIC (Candida albicans [12]) was 3 µM (≈ 1.38 µg/mL).
In the case of `Cc1ccc2c(Cn3nnc(N)c3C#N)cc(=O)oc2c1`, the MIC (Bacillus subtilis [1]) is reported as 25 µg/mL (≈ 88.9 µM), the MIC (Escherichia coli [2]) is reported as 0.2 µg/mL (≈ 0.711 µM) and the MIC (Pseudomonas aeruginosa [3]) is reported as 25 µg/mL (≈ 88.9 µM). The MIC (Staphylococcus aureus [4]) was 0.2 µg/mL (≈ 0.711 µM), the MIC (Candida albicans [5]) was 0.2 µg/mL (≈ 0.711 µM) and the MIC (Aspergillus niger [6]) was 0.2 µg/mL (≈ 0.711 µM).
`COc1ccc2oc(=O)cc(Cn3nnc(N)c3C#N)c2c1` was tested, and the MIC (Bacillus subtilis [1]) was 25 µg/mL (≈ 84.1 µM), the MIC (Escherichia coli [2]) was 0.2 µg/mL (≈ 0.673 µM) and the MIC (Pseudomonas aeruginosa [3]) was 25 µg/mL (≈ 84.1 µM). The MIC (Staphylococcus aureus [4]) was 0.2 µg/mL (≈ 0.673 µM), the MIC (Candida albicans [5]) was 0.2 µg/mL (≈ 0.673 µM) and the MIC (Aspergillus niger [6]) was 0.2 µg/mL (≈ 0.673 µM).
`Cc1ccccc1-n1cc(CNc2ccccc2-c2nnc(-c3ccccc3)o2)nn1` showed a zone of inhibition at 1000 µg/mL (Bacillus subtilis [13]) of 2.5 mm, a zone of inhibition at 1000 µg/mL (Staphylococcus aureus [14]) of 2.5 mm and a zone of inhibition at 1000 µg/mL (Pseudomonas aeruginosa [15]) of 2.5 mm. The zone of inhibition at 1000 µg/mL (Escherichia coli [16]) was 2.5 mm.
`Cc1cc(O)c(C(=O)/C=C/c2ccc(OCc3cn(-c4ccc([N+](=O)[O-])cc4)nn3)cc2)c(=O)o1` was tested, and the MIC (Escherichia coli [7]) was 3 µM (≈ 1.42 µg/mL), the MIC (Bacillus subtilis [8]) was 3 µM (≈ 1.42 µg/mL) and the MIC [9] was 3 µM (≈ 1.42 µg/mL). It also gave an MIC (Aspergillus niger [10]) of 3 µM (≈ 1.42 µg/mL), an MIC (Pseudomonas aeruginosa [11]) of 3 µM (≈ 1.42 µg/mL) and an MIC (Candida albicans [12]) of 3 µM (≈ 1.42 µg/mL).
In the case of `c1ccc(-c2nnc(-c3ccccc3NCc3cn(-c4ccccc4-c4ccc(-c5nnco5)cc4)nn3)o2)cc1`, the zone of inhibition at 1000 µg/mL (Bacillus subtilis [13]) is reported as 2.5 mm, the zone of inhibition at 1000 µg/mL (Staphylococcus aureus [14]) is reported as 2.5 mm and the zone of inhibition at 1000 µg/mL (Pseudomonas aeruginosa [15]) is reported as 2.5 mm. It also gave a zone of inhibition at 1000 µg/mL (Escherichia coli [16]) of 2.5 mm.
`Cc1cc(O)c(C(=O)/C=C/c2ccc(OCc3cn(Cc4ccc(Br)cc4)nn3)cc2)c(=O)o1` was tested, and the MIC (Escherichia coli [7]) was 3 µM (≈ 1.57 µg/mL), the MIC (Bacillus subtilis [8]) was 3 µM (≈ 1.57 µg/mL) and the MIC [9] was 3 µM (≈ 1.57 µg/mL). The MIC (Aspergillus niger [10]) was 3 µM (≈ 1.57 µg/mL), the MIC (Pseudomonas aeruginosa [11]) was 3 µM (≈ 1.57 µg/mL) and the MIC (Candida albicans [12]) was 3 µM (≈ 1.57 µg/mL).
Molecule `c1ccc(Cn2cc(CNc3ccccc3-c3nnc(-c4ccccc4)o3)nn2)cc1` has a zone of inhibition at 1000 µg/mL (Bacillus subtilis [13]) of 2.5 mm, a zone of inhibition at 1000 µg/mL (Staphylococcus aureus [14]) of 2.5 mm and a zone of inhibition at 1000 µg/mL (Pseudomonas aeruginosa [15]) of 2.5 mm. For the same molecule, the zone of inhibition at 1000 µg/mL (Escherichia coli [16]) was 2.5 mm.
With `Cc1cc(O)c(C(=O)/C=C/c2ccc(OCc3cn(-c4ccccc4)nn3)cc2)c(=O)o1` the MIC (Escherichia coli [7]) was 3 µM (≈ 1.29 µg/mL), the MIC (Bacillus subtilis [8]) was 3 µM (≈ 1.29 µg/mL) and the MIC [9] was 3 µM (≈ 1.29 µg/mL). For the same molecule, the MIC (Aspergillus niger [10]) was 3 µM (≈ 1.29 µg/mL), the MIC (Pseudomonas aeruginosa [11]) was 3 µM (≈ 1.29 µg/mL) and the MIC (Candida albicans [12]) was 3 µM (≈ 1.29 µg/mL).
Work on `Cc1nnn(Cc2cc(=O)oc3c4c(ccc23)OCO4)c1C(=O)O` yielded an MIC (Bacillus subtilis [1]) of 25 µg/mL (≈ 75.9 µM), an MIC (Escherichia coli [2]) of 0.2 µg/mL (≈ 0.607 µM) and an MIC (Pseudomonas aeruginosa [3]) of 25 µg/mL (≈ 75.9 µM). It also gave an MIC (Staphylococcus aureus [4]) of 0.2 µg/mL (≈ 0.607 µM), an MIC (Candida albicans [5]) of 0.2 µg/mL (≈ 0.607 µM) and an MIC (Aspergillus niger [6]) of 0.2 µg/mL (≈ 0.607 µM).
`Cc1cc(O)c(C(=O)/C=C/c2ccc(OCc3cn(Cc4cccc([N+](=O)[O-])c4)nn3)cc2)c(=O)o1` showed an MIC (Escherichia coli [7]) of 3 µM (≈ 1.47 µg/mL), an MIC (Bacillus subtilis [8]) of 3 µM (≈ 1.47 µg/mL) and an MIC [9] of 3 µM (≈ 1.47 µg/mL). It also gave an MIC (Aspergillus niger [10]) of 3 µM (≈ 1.47 µg/mL), an MIC (Pseudomonas aeruginosa [11]) of 3 µM (≈ 1.47 µg/mL) and an MIC (Candida albicans [12]) of 3 µM (≈ 1.47 µg/mL).
`CC(C)C[C@H](NC(=O)CNC(=O)C(C)(C)NC(=O)[C@@H](NC(=O)C(C)(C)NC(=O)[C@H](CCC(N)=O)NC(=O)[C@H](C)NC(=O)C(C)(C)NC(=O)[C@H](C)NC(=O)C(C)(C)NC(=O)[C@@H]1CCN(C(=O)C(C)(C)C(=O)c2ccc(C(F)(F)F)cc2)C1)C(C)C)C(=O)NC(C)(C)C(=O)N1CCC[C@H]1C(=O)N[C@H](C(=O)NC(C)(C)C(=O)NC(C)(C)C(=O)N[C@@H](CCC(N)=O)C(=O)N[C@@H](CCC(N)=O)C(=O)N[C@H](CO)Cc1ccccc1)C(C)C` (X1-[βPro(3R)][Aib]A[Aib]AQ[Aib]V[Aib]GL[Aib]PV[Aib][Aib]QQ[Phe(ol)]) was tested, and the MIC (Bacillus cereus) was 12.5 µg/mL (≈ 6.01 µM) and the MIC (Staphylococcus aureus [17]) was 1.56 µg/mL (≈ 0.751 µM).
`Cc1cc(O)c(C(=O)/C=C/c2ccc(OCc3cn(Cc4cccc(Br)c4)nn3)cc2)c(=O)o1` gave an MIC (Escherichia coli [7]) of 3 µM (≈ 1.57 µg/mL), an MIC (Bacillus subtilis [8]) of 3 µM (≈ 1.57 µg/mL) and an MIC [9] of 3 µM (≈ 1.57 µg/mL). It also gave an MIC (Aspergillus niger [10]) of 3 µM (≈ 1.57 µg/mL), an MIC (Pseudomonas aeruginosa [11]) of 3 µM (≈ 1.57 µg/mL) and an MIC (Candida albicans [12]) of 3 µM (≈ 1.57 µg/mL).
`CCOC(=O)c1c(C)nnn1Cc1cc(=O)oc2ccc(OC)cc12` showed an MIC (Bacillus subtilis [1]) of 25 µg/mL (≈ 72.8 µM), an MIC (Escherichia coli [2]) of 0.2 µg/mL (≈ 0.583 µM) and an MIC (Pseudomonas aeruginosa [3]) of 25 µg/mL (≈ 72.8 µM). The MIC (Staphylococcus aureus [4]) was 0.2 µg/mL (≈ 0.583 µM), the MIC (Candida albicans [5]) was 0.2 µg/mL (≈ 0.583 µM) and the MIC (Aspergillus niger [6]) was 0.2 µg/mL (≈ 0.583 µM).
For `Cc1cc(O)c(C(=O)/C=C/c2ccc(OCc3cn(Cc4ccc([N+](=O)[O-])cc4)nn3)cc2)c(=O)o1`, the MIC (Escherichia coli [7]) was 3 µM (≈ 1.47 µg/mL), the MIC (Bacillus subtilis [8]) was 3 µM (≈ 1.47 µg/mL) and the MIC [9] was 3 µM (≈ 1.47 µg/mL). The MIC (Aspergillus niger [10]) was 3 µM (≈ 1.47 µg/mL), the MIC (Pseudomonas aeruginosa [11]) was 3 µM (≈ 1.47 µg/mL) and the MIC (Candida albicans [12]) was 3 µM (≈ 1.47 µg/mL).
With `c1ccc(-c2nnc(-c3ccccc3NCc3cn(-c4ccccc4)nn3)o2)cc1` the zone of inhibition at 1000 µg/mL (Bacillus subtilis [13]) was 2.5 mm, the zone of inhibition at 1000 µg/mL (Staphylococcus aureus [14]) was 2.5 mm and the zone of inhibition at 1000 µg/mL (Pseudomonas aeruginosa [15]) was 2.5 mm. It also gave a zone of inhibition at 1000 µg/mL (Escherichia coli [16]) of 2.5 mm.
For `Cc1ccc2oc(=O)cc(Cn3nnc(C)c3C(=O)O)c2c1`, the MIC (Bacillus subtilis [1]) was 25 µg/mL (≈ 83.5 µM), the MIC (Escherichia coli [2]) was 0.4 µg/mL (≈ 1.34 µM) and the MIC (Pseudomonas aeruginosa [3]) was 25 µg/mL (≈ 83.5 µM). It also gave an MIC (Staphylococcus aureus [4]) of 0.2 µg/mL (≈ 0.668 µM), an MIC (Candida albicans [5]) of 0.2 µg/mL (≈ 0.668 µM) and an MIC (Aspergillus niger [6]) of 0.2 µg/mL (≈ 0.668 µM).
